The values below are quoted from earlier work in patent US20140220080A1, “IgA SECRETION PROMOTER” (MATSUTANI CHEMICAL INDUSTRY CO., LTD., priority 2013, published 2014).

Each structure is given as a SMILES string.

For the data set, the system named is IgA. As to conditions: Patent Literature 1, 2; Non-Patent Literature 1-3.

With `OC[C@H]1O[C@@H](O[C@H]2[C@H](O)[C@@H](O)[C@@H](O[C@]3(CO)O[C@H](CO)[C@@H](O)[C@@H]3O)O[C@@H]2CO)[C@H](O)[C@@H](O)[C@H]1O` [lactosucrose], the “action of promoting IgA secretion” value is recorded as “have an action of promoting IgA secretion”.
